In patent US20250195427A1, “ANTI-INFLAMMATORY DRUG-ELUTING COMPOSITIONS AND METHODS” (THE REGENTS OF THE UNIVERSITY OF CALIFORNIA, priority 2022, published 2025):
Values after ≈ are worked out from the molar mass of the structure shown.

What was measured:
[1] = Drug loading of mPEG-b-p(HPMAm-Lacn) micelles by HPLC (loaded concentration, encapsulation efficiency, loading capacity); format: physicochemical; conditions: for final concentration of drug loaded inside MCs: polymer 10 mg/mL, 1 mL MC solution, HPLC; for difference in encapsulation efficiency (EE) % with various polymer/drug ratios: polymer/drug ratios 10:0.25 to 10:2
Protocol: Drug loaded MCs were formed by self-assembly via a solvent evaporation method. Briefly, 10 mg of copolymers […] dissolved in 1 mL of acetone. Various amounts of drugs (0.25, 0.5, 1 and 2 mg) were then added to the copolymer solution and vortexed until fully mixed. […] The next day, the MC solution was centrifuged at 4,000 rpm at 22° C. for 10 min to remove unencapsulated drugs. LE, PA, and DEX were three drugs of interest. 30 mg/mL of drug stock solutions were prepared in DMSO. Unloaded MCs were prepared with the same procedure without the addition of drugs. The amount of loaded drugs (LE, PA and DEX) in the polymeric MCs was determined by using High Performance Liquid Chromatography (HPLC). Taking LE as an example, after centrifugation of the MC solution, the unencapsulated LE pellet was redissolved in 1 mL of ACN. […] LE dissolved in ACN (concentration from 0.1 mg/ml to 1 mg/ml) was used for calibration. The encapsulation efficiency (EE) and loading capacity (LC) were calculated as follows: […]

[2] = cited from earlier work

With `CCOC(=O)O[C@]1(C(=O)OCCl)CC[C@H]2[C@@H]3CCC4=CC(=O)C=C[C@]4(C)[C@H]3[C@@H](O)C[C@@]21C` [LE, Loteprednol etabonate] the “final concentration of drug loaded inside MCs” value (from here on “final concentration”) ([1]; initially applied drug 0.25 mg) was 55.7 ± 10.0 µg/mL, the “final concentration” value ([1]; initially applied drug 2 mg) was 589.2 ± 75.5 µg/mL and the “difference in encapsulation efficiency (EE) % with various polymer/drug ratios” value [1] was “No significant difference”. The “Log P” value [2] was 3.08 and the solubility in water [2] was 0.5 µg/mL (≈ 1.07 µM).
With `CC(=O)OCC(=O)[C@@]1(O)CC[C@H]2[C@@H]3CCC4=CC(=O)C=C[C@]4(C)[C@H]3[C@@H](O)C[C@@]21C` [PA, Prednisolone acetate] the “final concentration” value ([1]; initially applied drug 0.25 mg) was 171.7 ± 4.2 µg/mL, the “final concentration” value ([1]; initially applied drug 2 mg) was 1154.0 ± 108.6 µg/mL and the “difference in encapsulation efficiency (EE) % with various polymer/drug ratios” value [1] was “No significant difference”.
